{"source": "patent US12636269B2", "about": "“Compositions and methods of use of gamma-ketoaldheyde scavengers for treating, preventing or improving fibrosis of the liver” (MTI Biotech, Inc., priority 2017, dated 2026)", "key": {"primary human HSC": {"system": "primary human HSC", "conditions": "non-cytotoxic levels; cited from earlier work"}, "[1]": {"conditions": "in vitro and in vivo; cited from earlier work"}, "Timp1": {"system": "Timp1", "assay": "liver mRNA expression by RT-qPCR in DIAMOND mice, Timp1", "type": "in vivo, mouse", "conditions": "qRT-PCR", "from_the_text": "(§1) Twelve 8-wk old male DIAMOND mice were placed on ad libitum high fat diet (Harlan—ENVIGO TD.88317) and water containing glucose (18.9% w/v) and fructose (23.1% w/v); all mice remained on this diet throughout the study protocol. At 12 weeks of age, mice were divided into two groups: 1) 2-HOBA (n=6), and 2) vehicle controls (n=6). Animals in the 2-HOBA group received 2-HOBA in drinking water (1 g/L water with glucose and fructose). The vehicle control group received water without 2-HOBA (with glucose and fructose). Body weight and food intake were measured weekly. At […] of age, all animals underwent a glucose tolerance test (GTT) and MRI imaging to assess hepatic fat. For the GTT, animals were fasted for 12 hours and then glucose (2 g/kg bw of a 100 mg/mL glucose in sterile water) was administered by oral gavage. Blood was sampled at 0, 15, 30, 45, 60, 90, and 120 minutes after glucose administration and area under the curve was calculated. […]\n(§2) Liver sections were stained with hematoxylin and eosin (for scoring of steatosis, hepatocyte ballooning, and inflammation) and Sirius red (for assessment of fibrosis). […] Serum levels of glucose, alanine transaminase, and aspartate transaminase were measured. Liver mRNA expression was assessed via RT-qPCR for the following genes: Tnfa, Nlrpla, Il1b, Il18, Timp1, Colla1, ProCard, Nlrp3, Casp1, ProIl1b, Tgfb1, Bambi, Pdk4, and Gapdh. […]"}, "cyclooxygenase enzymes": {"system": "cyclooxygenase enzymes", "conditions": "cited from earlier work"}, "HepG2 cells": {"system": "HepG2 cells", "conditions": "cited from earlier work"}, "Colla1": {"system": "Colla1", "assay": "liver mRNA expression by RT-qPCR in DIAMOND mice, Colla1", "type": "in vivo, mouse", "conditions": "qRT-PCR, not statistically significant (p=0.08)", "from_the_text": "as §1, §2"}, "DIAMOND mice": {"system": "DIAMOND mice", "assay": "liver histology (fibrosis, steatosis, ballooning, inflammation) in DIAMOND mice on high-fat, high-sugar diet", "type": "in vivo, mouse", "conditions": "for fibrosis score: Picosirius Red staining, scale of 0 to 4, 1 g/L in drinking water, 12 weeks", "from_the_text": "DIAMOND (Diet Induced Animal Model of Non-alcoholic fatty liver Disease) is a proprietary isogenic mouse strain that sequentially develops non-alcoholic fatty liver disease, non-alcoholic steatohepatitis, fibrosis, and hepatocellular carcinoma in response to a high-fat, high-sugar diet. Disease progression in the DIAMOND mice uniquely parallels human disease progression, including histopathology.\nTwelve 8-wk old male DIAMOND mice were placed on ad libitum high fat diet (Harlan—ENVIGO TD.88317) and water containing glucose (18.9% w/v) and fructose (23.1% w/v); all mice remained on this diet throughout the study protocol. At 12 weeks of age, mice were divided into two groups: 1) 2-HOBA (n=6), and 2) vehicle controls (n=6). Animals in the 2-HOBA group received 2-HOBA in drinking water (1 g/L water with glucose and fructose). The vehicle control group received water without 2-HOBA (with glucose and fructose). Body weight and food intake were measured weekly. At […] of age, all animals underwent a glucose tolerance test (GTT) and MRI imaging to assess hepatic fat. For the GTT, animals were fasted for 12 hours and then glucose (2 g/kg bw of a 100 mg/mL glucose in sterile water) was administered by oral gavage. Blood was sampled at 0, 15, 30, 45, 60, 90, and 120 minutes after glucose administration and area under the curve was calculated. Animals were sacrificed at 24 weeks of age (12 weeks of 2-HOBA or vehicle treatment). Tissues and serum were collected for analysis.\nLiver sections were stained with hematoxylin and eosin (for scoring of steatosis, hepatocyte ballooning, and inflammation) and Sirius red (for assessment of fibrosis). Scoring was performed in a blinded manner for steatosis, ballooning, inflammation, and necrosis using the following criterial, Steatosis (0-4): 0=<5%; 1=5-25%; 2=25-50%; 3=50-75%; 4=75-100%. Ballooning (0-3): 0=absent; 1=mild (focal involving fewer than three hepatocytes); 2=moderate (focal involving more than three hepatocytes or multifocal); 3=prominent (multifocal with more than two foci of three or more hepatocytes). Inflammation (0-4): 0=absent; 1=minimal (zero to one focus per 20× field); 2=mild (two foci); 3=moderate (three foci); 4=severe (four or more foci). Serum levels of glucose, alanine transaminase, and aspartate transaminase were measured. Liver mRNA expression was assessed via RT-qPCR for the following genes: Tnfa, Nlrpla, Il1b, Il18, Timp1, Colla1, ProCard, Nlrp3, Casp1, ProIl1b, Tgfb1, Bambi, Pdk4, and Gapdh. Two-tailed independent samples t-tests were used to compare endpoints between 2-HOBA and vehicle treated groups. Significance was set at α=0.05."}, "[2]": {"conditions": "compared to vehicle treated DIAMOND mice"}}, "data": [{"compound": "15-E2-isolevuglandin [15-E2-IsoLG]", "values": [{"measurement": "HSC activation (α-SMA expression, MAPK activation, cytokine production)", "setting": "primary human HSC", "value": "promoted HSC activation"}]}, {"compound": "NCc1ccccc1O", "note": "[2-HOBA, 2-Hydroxybenzylamine]", "values": [{"measurement": "protein and lipid adduction", "setting": "[1]", "value": "preventing protein and lipid adduction"}, {"measurement": "liver Timp1 mRNA expression", "setting": "Timp1", "value": "reduced"}, {"measurement": "inhibition of cyclooxygenase enzymes", "setting": "cyclooxygenase enzymes", "value": "does not inhibit"}, {"measurement": "protection against H2O2-induced cytotoxicity", "setting": "HepG2 cells", "value": "dramatically protected"}, {"measurement": "Colla1 mRNA expression levels", "setting": "Colla1", "value": "tended to be lower"}, {"measurement": "hepatic fibrosis", "setting": "DIAMOND mice; DIAMOND mice", "value": "attenuates"}, {"measurement": "markers of inflammation", "setting": "DIAMOND mice; DIAMOND mice", "value": "without altering"}, {"measurement": "fibrosis score", "setting": "DIAMOND mice; the remaining two treated mice", "value": 1}, {"measurement": "fibrosis score", "setting": "DIAMOND mice; three of the treated mice", "value": 0}, {"measurement": "degree of hepatic steatosis", "setting": "DIAMOND mice; [2]", "value": "similar"}, {"measurement": "degree of hepatocellular ballooning", "setting": "DIAMOND mice; [2]", "value": "similar"}, {"measurement": "incidence of fibrosis", "setting": "DIAMOND mice; compared to vehicle treated DIAMOND mice, p=0.03", "value": "significantly lower"}]}]}
